# What was measured:
# [1] = tested on: SKOV3 xenograft tumors; experiment: SKOV3 subcutaneous xenograft with Cisplatin; format: in vivo, BALB/c nude mice; conditions: Lv-shTRDMT1 infected SKOV3 xenografts, Cisplatin 5 mg/kg intratumoral twice per week for 3 weeks
# Method: FIGS. 5A-5E show reduced TRDMT1 expression renders Cisplatin sensitization in vivo. (FIG. 5A) Lv-shTRDMT1 or Lv-NC transfected SKOV3 cells were subcutaneously injected into BALB/c nude mice, a week after injection, Cisplatin (5 mg/kg) or saline was injected into the center of the xenograft tumors twice per week for 3 consecutive weeks. (FIG. 5B) Representative images of tumors in xenografts transfected with LV-shTRDMT1/LV-NC with saline or Cisplatin treatment. (FIG. 5C) Tumor size of SKOV3 subcutaneous xenograft tumors (n=6, Mean±SD). (FIG. 5D) WB for TRDMT1 in tumor tissues collected from mice in each group (Tissues from six tumors in the same group were mixed into one sample). (FIG. 5E) IHC of TRDMT1 and KI-67 expression in ovarian cancer tissues of patients who were platinum-sensitive (PFS>6) and −resistant (PFS<6) Staining was assessed and scored on a scale of 0 (<5% staining) to 4 (>75% staining) in G. Quantification of IHC staining (n=38, PFS>6, n=24; PFS<6, n=14) was shown.
# SKOV3 cells (1.0×10^6) were transfected with LV-TRDMT1-RNAi (gcAGAAGA AATTCACAGGAAA, SEQ ID NO: 15) or LV-NC-RNAi and injected […] into female nude mice which were then randomly divided into 4 groups (6 animals per condition). […] PFS was calculated from the time of surgery to the time of progression or recurrence. […]
# [2] = tested on: cancer cell lines (HST578, MBAMD231, HCC1937, HCC1954); experiment: Cell survival (colony) assay with TRDMT1i alone, Example 19; format: cell-based; conditions: HCC1954 (HRD, high SYCP2)
# Method: FIGS. 14A-14C show TRDMT1i alone reduce cancer cell survival in a dose-dependent manner. (FIG. 14A) Survival rate of HR proficient (HR+) HST578 cancer cells with and without siBRCA1 and/or TRDMT1i YW-1842 at indicated dose. The survival rate of these cells was analyzed (n=3, Mean±SD). (FIG. 14B) Survival rate of MBAMD231 (HR+) and HCC1937 (HRD) cells. The survival rate of these cells was analyzed (n=3, Mean±SD). (FIG. 14C) Cell survival rate in different cancer cell lines via colony-forming assay with the treatment of Imatinib at indicated dose (n=3, mean+/−S.D.). Cell lines are listed in order with the expression level from SYCP2high to SYCP2low.
# HCC1500, HCC1954, BT549, MCF7 and MDAMB468 were cultured in Roswell Park Memorial Institute (RPMI) 1640 Medium (Sigma, R8758) with 10% (vol/vol) fetal bovine serum (FBS, XY Cell Culture, FBS-500) at 37° C., 5% CO2. siBRCA1 (L-003461-00, Dharmacon) was transfected with Lipofectamine RNAiMax (Invitrogen; Carlsbad, CA, USA). PARPi Olaparib (AZD2281/Ku-0059436, Sellekchem, S1060) and Pol theta inhibitor Novobiocin (Sigma) were used.
# Cells were seeded in each 6-cm dish and cultured as described above. They were treated with drugs with indicated dose in medium after seeding. After 7-10 days, colonies were fixed and stained with 0.3% crystal violet in methanol, and the number of colonies was counted manually.
# [3] = tested on: MD-MBA-231 xenograft tumors; experiment: MDA-MB-231 xenograft with PARPi; format: in vivo, BALB/c nude mice; conditions: injection every 2 days after day 7, 23 days
# Method: FIGS. 9A-9G show SYCP2 is required for efficient homologous recombination. (FIG. 9A) Cell survival rate of HeLa and MDAMB231 via colony forming assay with the treatment of 2 μM, 4 μm, 6 μM, 8 μM, 16 μM of Olaparib (n=3, mean+/−S.D.). Western blot of SYCP2 overexpression in HeLa and MDA-MB-231 is shown in the left. (FIG. 9B) Cell survival rate of HeLa via colony forming assay with the treatment of 1 μM, 2 μm, 3 μM of Olaparib (n=3, mean+/−S.D.). Western blot of SYCP2 knockdown in Hela is shown in the left. (FIG. 9C) Scheme of Xenograft design using intraperitoneal injection of MBA-MD-231 into successful developed mouse model with virus-associated SYCP2 knockdown and control groups is shown in the left. PARPi was injected every 2 days after day 7. The graph is shown the recorded tumor size of each tested group with PARPi treatment or saline at each treatment day. (FIG. 9D). Numbers of SYCP2 IR induced foci (IRIF) colocalizing with γH2AX in MDAMB231 and HeLa cells. Cells were fixed and counted for foci numbers after 2 Gy IR followed up indicated recovery time (t=0 hr, 12 hr, 24 hr, and 48 hr) (n=30, mean+/−S.D). (FIG. 9E). […] Fold increase of mean intensity at sites of irradiation compared to mean intensity of nucleus expression is quantified (n=5, mean+/−SD). […] Numbers of RAD51 IRIF in siCtrl and siSYCP2 treated MDAMB231 and U2OS cells after 2 Gy IR and 1 hour recovery were counted (n=20, +/−SD). […]
compound,measurement,setting,value
N.N.[Cl][Pt][Cl] [cisplatin],xenograft tumor size,[1],grew statistically smaller
O=C(c1cc(Cc2n[nH]c(=O)c3ccccc23)ccc1F)N1CCN(C(=O)C2CC2)CC1 [olaparib],sensitivity of HCC1954 to PARPi,[2],relatively resistant
same,"tumor growth reduction by PARPi, SYCP2 knockdown versus control tumors",[3]; LV-siSYCP2 tumors,more than control tumors
same,"tumor growth, control tumors",[3]; siControl tumors,reduced the growth of control tumors

# Source: patent publication US12496302B2, “Compositions and methods for the treatment and diagnosis of cancer” (The General Hospital Corporation, priority 2020, dated 2025)
